Five compounds from article PMC11845477, “Exploring the principles behind antibiotics with limited resistance” (Nature Communications, 2025) can be followed below.

What all share (test): microbe, parasite or virus in culture
Common to all, as to conditions: for MIC: across three biological replicates

Assay [1] concerns E. coli ATCC 25922 (SEN) and E. coli NCTC13846 (MDR). The format is cell-based, Escherichia coli. Here is the method:
(§1) This study focused on multiple bacterial strains, as follows. For the FoR and ALE experiments, 2 strains per species were chosen: E. coli ATCC 25922, K. pneumoniae ATCC 10031, A. baumannii ATCC 17978, and P. aeruginosa ATCC BAA-3107 as sensitive (SEN) strains, and E. coli NCTC13846, K. pneumoniae ATCC 700603, A. baumannii ATCC BAA-1605 and P. aeruginosa LESB58 as multi-drug resistant (MDR) strains. Functional metagenomic screens were performed with E. coli ATCC 25922 and K. pneumoniae ATCC 10031 strains. To determine the dose-kill properties of the different antibiotics, an E. coli strain (ATCC 25922) expressing a yellow fluorescent protein (pZS2R, YFP, CHL^R) and a red fluorescent protein (pZS2R, mCherry, CHL^R) was used.
(§2) Unless otherwise indicated, cation-adjusted Mueller-Hinton Broth 2 (MHB, Millipore) medium was used throughout the study, except for SCH79797 (SCH).
(§3) A robotic liquid handling system was used to automatically prepare a 11 to 16-step serial dilution in 384-well microtiter plates (Greiner). A final concentration of 5 × 10^5 bacterial cells per mL were inoculated into each well containing 60 µL MHB medium. Bacterial cultures were incubated at 37 °C with continuous shaking (Infors shaker, 900 rpm with 3 mm throw) for 18 hours (2 replicates from each). Cell growth was monitored by measuring the optical density (OD600 values, using Biotek Synergy microplate reader). MIC was defined as the antibiotic concentration of complete growth inhibition (i.e., OD600 < 0.05). Relative MIC was calculated as follows:1 relativeMIC=MICevolved/MICancestor

The subject of assay [2] is K. pneumoniae ATCC 10031 (SEN) and K. pneumoniae ATCC 700603 (MDR). Type of assay: cell-based, Klebsiella pneumoniae. Here is the method: as §1, §2, §3
Assay [3] has as its system P. aeruginosa ATCC BAA-3107 (SEN) and P. aeruginosa LESB58 (MDR). The format is cell-based, Pseudomonas aeruginosa. The procedure: as §1, §2, §3
The mark [4] stands for this setting: E. coli NCTC 13846 (EC-MDR), ancestor strain, sheet fig 2a.
Setting [5] is: ancestor EC-SEN (Escherichia coli ATCC 25922).
The mark [6] stands for this setting: Klebsiella pneumoniae ATCC 10031 (KP-SEN), ancestor strain, sheet fig 2a.
Setting [7] is: Klebsiella pneumoniae ATCC 700603 (KP-MDR), ancestor.
The mark [8] stands for this setting: Klebsiella pneumoniae ATCC 700603 (KP-MDR), ancestor strain, sheet fig 2a.
The mark [9] stands for this setting: ancestor KP-SEN (Klebsiella pneumoniae ATCC 10031).
[10] abbreviates: P. aeruginosa ATCC BAA 3107 (PA-SEN), ancestor strain, sheet fig 2a.
Setting [11] is: P. aeruginosa LESB 58 (PA-MDR), ancestor strain, sheet fig 2a.
[12] abbreviates: Escherichia coli ATCC 25922 (EC-SEN), ancestor strain, sheet fig 2a.
The mark [13] stands for this setting: Escherichia coli ATCC 25922 (EC-SEN).
Where [14] appears, read: Escherichia coli NCTC 13846 (EC-MDR).
[15] abbreviates: Klebsiella pneumoniae ATCC 10031 (KP-SEN).
Where [16] appears, read: Klebsiella pneumoniae ATCC 700603 (KP-MDR).
The mark [17] stands for this setting: Pseudomonas aeruginosa ATCC BAA-3107 (PA-SEN).
Where [18] appears, read: Pseudomonas aeruginosa LESB 58 (PA-MDR).
Setting [19] is: Escherichia coli, Escherichia coli ATCC 25922 (EC-SEN).
Setting [20] is: Escherichia coli, Escherichia coli NCTC 13846 (EC-MDR).
The mark [21] stands for this setting: Klebsiella pneumoniae, Klebsiella pneumoniae ATCC 10031 (KP-SEN).
[22] abbreviates: Klebsiella pneumoniae, Klebsiella pneumoniae ATCC 700603 (KP-MDR).
The mark [23] stands for this setting: Pseudomonas aeruginosa, ATCCBAA3107, Pseudomonas aeruginosa ATCC BAA-3107 (PA-SEN).
Where [24] appears, read: Pseudomonas aeruginosa, ATCCBAA3107, Pseudomonas aeruginosa LESB 58 (PA-MDR).

As for polymyxin-B, the MIC of ancestor was found to be 1 µg/mL in assay [1] (E. coli ATCC 25922 (EC-SEN), ancestor strain, sheet fig 2a); 4 µg/mL in assay [1] (setting [4]); 4 µg/mL in assay [1] (Escherichia coli NCTC 13846 (EC-MDR), ancestor); 1 µg/mL in assay [1] (setting [5]); 2 µg/mL in assay [2] (setting [6]); 1 µg/mL in assay [2] (setting [7]). The MIC of ancestor is 1 µg/mL in assay [2] (setting [8]); 2 µg/mL in assay [2] (setting [9]); 1 µg/mL in assay [3] (setting [10]); 2 µg/mL in assay [3] (setting [11]); 2 µg/mL in assay [3] (Pseudomonas aeruginosa LESB 58 (PA-MDR), ancestor); 2 µg/mL in assay [3] (ancestor PA-MDR (Pseudomonas aeruginosa LESB 58)). In assay [3] (ancestor PA-SEN (Pseudomonas aeruginosa ATCC BAA 3107)), the MIC of ancestor came out at 1 µg/mL.
Turning to Tridecaptin M152-P3, the MIC of ancestor in assay [1] (setting [12]), in assay [1] (setting [5]), in assay [2] (setting [6]) and in assay [2] (setting [9]) was 4 µg/mL throughout. Further, the MIC in assay [1] (setting [13]) is 4 µg/mL; in assay [1] (setting [14]), 8 µg/mL; in assay [2] (setting [15]), 4 µg/mL; in assay [2] (setting [16]), 8 µg/mL; in assay [3] (setting [17]), 32 µg/mL; in assay [3] (setting [18]), over 32 µg/mL.
For the compound `COc1c(N2C[C@@H]3CCCN[C@@H]3C2)c(F)cc2c(=O)c(C(=O)O)cn(C3CC3)c12` [Moxifloxacin], the MIC of ancestor in assay [1] (Escherichia coli ATCC 25922 (EC-SEN), ancestor) is 0.0312 µg/mL; in assay [1] (setting [12]) it was 0.0312 µg/mL; in assay [2] (Klebsiella pneumoniae ATCC 10031 (KP-SEN), ancestor), 0.00781 µg/mL; in assay [2] (setting [6]), 0.00781 µg/mL; in assay [2] (setting [7]), 1 µg/mL; in assay [2] (setting [8]) it was 1 µg/mL. Moreover, the MIC of ancestor in assay [3] (setting [10]) is 1 µg/mL; in assay [3] (Pseudomonas aeruginosa ATCC BAA 3107 (PA-SEN), ancestor), 1 µg/mL. Further, the MIC in assay [1] (setting [19]) was 0.0312 µg/mL; in assay [1] (setting [20]), over 32 µg/mL; in assay [2] (setting [21]), 0.00781 µg/mL; in assay [2] (setting [22]), 1 µg/mL; in assay [3] (setting [23]), 1 µg/mL; in assay [3] (setting [24]) it was 32 µg/mL.
Take POL7306: the MIC in assay [1] (setting [13]) came to 1 µg/mL; in assay [1] (setting [14]), 4 µg/mL; in assay [2] (setting [15]), 1 µg/mL; in assay [2] (setting [16]), 1 µg/mL; in assay [3] (setting [17]), 2 µg/mL; in assay [3] (setting [18]), 8 µg/mL.
For `C[C@@H](O)[C@H]1C(=O)N2C(C(=O)O)=C(S[C@@H]3CN[C@H](C(=O)N(C)C)C3)[C@H](C)[C@H]12` [Meropenem], the MIC of ancestor came out at 0.0156 µg/mL in assay [1] (setting [4]); 0.0156 µg/mL in assay [1] (EC-MDR, Escherichia coli NCTC 13846, ancestor strain); 0.0312 µg/mL in assay [1] (EC-SEN, Escherichia coli ATCC 25922, ancestor strain); 0.0312 µg/mL in assay [1] (setting [12]); 0.0625 µg/mL in assay [2] (KP-MDR, Klebsiella pneumoniae ATCC 700603, ancestor strain); 0.0312 µg/mL in assay [2] (setting [6]). The MIC of ancestor in assay [2] (setting [8]) amounted to 0.0625 µg/mL; in assay [3] (setting [10]) it was 0.0312 µg/mL; in assay [3] (setting [11]), 2 µg/mL; in assay [3] (PA-MDR, Pseudomonas aeruginosa LESB 58, ancestor strain), 2 µg/mL; in assay [3] (PA-SEN, Pseudomonas aeruginosa ATCC BAA 3107, ancestor strain), 0.0312 µg/mL. The MIC in assay [1] (setting [19]) was 0.0312 µg/mL; in assay [1] (setting [20]), under 0.0312 µg/mL; in assay [2] (setting [21]), 0.0312 µg/mL; in assay [2] (setting [22]), 0.0625 µg/mL; in assay [3] (setting [23]) it was 0.0312 µg/mL; in assay [3] (setting [24]), 2 µg/mL.
